Experimental data reported in patent US9670217B2, “Process for preparing chlorins and their pharmaceutical uses” (UNIVERSIDADE DE COIMBRA, priority 2008, dated 2017).

Tests used:
[1] = Fluorescence quantum yield; assay type: physicochemical; details: in aqueous solution
Procedure: The absorptions of both reference and sample solutions were matched at ca 0.2 at the excitation wavelength of 515.5 nm, and the solutions were diluted by a factor 10 before collecting the fluorescence. The fluorescence quantum yield was obtained from the ratio of the fluorescence bands of the sample vs the reference, multiplied by the fluorescence quantum yield of the reference, 0.012 according to [12], after correction for the difference of refractive indexes of ethanol and toluene.
(§1) This is indicative of little aggregation between the molecules, which exist mostly as monomers at these concentrations in the solvents studied. Table 1 presents typical red and infrared molar absorption coefficients (εmax) and wavelength maxima. The same table also presents representative fluorescence quantum yields (ΦF) of Luzitins. The fluorescence quantum yields decrease of these molecules decrease in the presence of chlorine substituents, a fingerprint of the heavy atom effect expected for such molecules.

[2] = Absorption spectra (λmax, molar absorption coefficient); assay type: physicochemical; details: in aqueous solution
Procedure: Absorption spectra were recorded on a Shimadzu UV-2100 spectrophotometer or with a Carry 50 Biospectrophotometer (Varian, Mulgrave, USA). Fluorescence spectra were measured with a Spex Fluorolog 3 spectrophotometer, with correction for the wavelength dependence system (RCA C31034 photomultiplier), or with a PerkinElmer LS 50 spectrofluorimeter. Transient absorption spectra were measured with an Applied Photophysics LKS 60 nanosecond laser flash photolysis kinetic spectrometer, using the third harmonic of a Spectra-Physics Quanta Ray GCR 130-01 Nd/YAG laser for excitation, a Hamamatsu 1P28 photomultiplier and a Hewlett-Packard Infinium oscilloscope (1 GS/s). Flash photolysis measurements were made in the presence of air and in argon saturated solutions. Photoacoustic calorimetry employed the same Nd/YAG laser, a home-made front-face photoacoustic cell with a 2.25 MHz Panametrics transducer (model 5676) and a Tektronix DSA 601 transient recorder. Room-temperature singlet-oxygen phosphorescence was measured at 1270 nm with a Hamamatsu R5509-42 photomultiplier, cooled to 193 K in a liquid nitrogen chamber (Products for Research model PC176TSCE005), following laser excitation of aerated solutions at 355 nm, using an adapted Applied Photophysics spectrometer. Singlet oxygen emission at 1270 nm was also monitored with a liquid nitrogen-cooled germanium detector (North Coast) coupled to a Tectronix Digitizing scope (TDS 520B), following sample excitation with 5 ns laser pulses of the third harmonic (355 nm) generated by a Q-switched Nd:YAG laser (Continuum Surelite II).
as §1

[3] = system: SKMEL 188 (human melanoma); assay: Cell photosensitization, filtered halogen lamp, MTT; assay type: cell-based; details: [Luzitin-Cl-c] = 20 μM
Procedure: (§2) Irradiation in in vitro experiments was performed using either a halogen lamp or a laser source. In the first case, a 500 W halogen lamp was placed 50 cm from the irradiated plate to insure a homogeneous irradiation. A cooled water filter (d=35 mm) and a 600 nm cut off filter were placed between the lamp and samples. The fluence rate reaching samples was 3 mW/cm^2. The emission spectrum of the halogen lamp was recorded using a spectroradiometer IL2000 (Spectrocube), FIG. 1. In the second case, three Lynx external cavity diode lasers TEC 500 powered by PilotPC 500 Laser Controllers (Sacher Lasertechnik, Marburg, Germany) were employed. The laser energies were stable at 40 mW for the 748 nm laser, 10 mW for the 649 laser and 10 mW for the 633 laser. The laser energies were regularly measured with a Coherent LaserCheck. In some in vitro experiments, the laser light was focused on an optical fiber through a collimator in microbench, and delivered to the cells. This system reduced the 748 nm laser light to 30 mW.
The cell lines employed in halogen lamp irradiation were the MCF7 (human breast carcinoma), SKMEL 188 (human melanoma) and S91/I3 (mouse melanoma) cells. They were used both for cytotoxicity and photocytotoxicity experiments. MCF7 cells were grown supplemented with 10% fetal calf (FBS) serum, 25 units/ml of penicillin, and 25 μg/ml of streptomycin. Human melanoma cells SKMEL-188 were grown in F10 medium supplemented with 10% fetal calf serum (FCS), 100 units/ml of penicillin, and 100 μg/ml of streptomycin. I3 subline of Cloudman S91 melanoma cells were cultured in RPMI 1640 medium supplemented with 100 units/ml of penicillin, 100 μg/ml streptomycin and 5% fetal calf serum (FCS) (Gibco BRL). […]
Cytotoxicity. Cell metabolic efficiency and viability were determined by the uptake and reduction of 3-(4,5-dimethylthiazol-2-yl)-2,5-diphenyl tetrazolium bromide (MTT) to an insoluble formazan dye by cellular microsomal enzymes. […] The 96-well culture plate was shaken for 0.5 min at room temperature and immediately read for optical density at 560 nm using an ELISA reader (GENios Plus; Tecan Trading AG, Switzerland). The cell survival was expressed by the absorbance changes of the formazan salt, and survival rate was given as the percent ratio of viable treated cells vs. the number of viable untreated cells. Number of cells was determined from linear regression of a calibration curve.
Cell photosensitization. […] The values were obtained from three independent experiments and expressed as percent of cell survival with reference to control cells, which were manipulated in the same manner but without incubation with photosensitizer and without illumination.

[4] = Singlet oxygen quantum yield and lifetime (1270 nm phosphorescence); assay type: physicochemical; details: in aqueous solution
[5] = system: MCF7 (human breast carcinoma); assay: Cell photosensitization, filtered halogen lamp, MTT; assay type: cell-based; details: [Luzitin-Cl-c] = 20 μM, filtered halogen lamp
Procedure: as §2
(§3) The cell lines employed in halogen lamp irradiation were the MCF7 (human breast carcinoma), SKMEL 188 (human melanoma) and S91/I3 (mouse melanoma) cells. They were used both for cytotoxicity and photocytotoxicity experiments. MCF7 cells were grown supplemented with 10% fetal calf (FBS) serum, 25 units/ml of penicillin, and 25 μg/ml of streptomycin. Human melanoma cells SKMEL-188 were grown in F10 medium supplemented with 10% fetal calf serum (FCS), 100 units/ml of penicillin, and 100 μg/ml of streptomycin. I3 subline of Cloudman S91 melanoma cells were cultured in RPMI 1640 medium supplemented with 100 units/ml of penicillin, 100 μg/ml streptomycin and 5% fetal calf serum (FCS) (Gibco BRL). All cell lines were cultivated as monolayer in Petri dishes of 60 mm diameter and incubated at 37° C. in a humid atmosphere containing 5% CO2.
(§4) Cytotoxicity. Cell metabolic efficiency and viability were determined by the uptake and reduction of 3-(4,5-dimethylthiazol-2-yl)-2,5-diphenyl tetrazolium bromide (MTT) to an insoluble formazan dye by cellular microsomal enzymes. The cell lines were grown in RPMI medium with 10% fetal calf serum, penicillin and streptomycin. Cells were maintained in 5% CO2, 95% air and 100% humidity. For determining cytotoxicity, these cells were plated in 96-well plates at a density of 1×10^4 cells well in complete media. After 24 h, the cells were incubated with photosensitizers at different concentrations (0.25 up to 50 μM) for 18 hours at 37° C. The cells were then washed twice with PBS and incubated in growth medium at 37° C. for 24 h. Next, the medium was replaced by 100 μl of fresh medium and 20 μl of MTT, and the cells were incubated with MTT for 3 h, with a final concentration of 0.5 mg/ml. Then the culture medium was replaced with DMSO-methanol solution (1:1) to dissolve the blue formazan crystals. The 96-well culture plate was shaken for 0.5 min at room temperature and immediately read for optical density at 560 nm using an ELISA reader (GENios Plus; Tecan Trading AG, Switzerland). The cell survival was expressed by the absorbance changes of the formazan salt, and survival rate was given as the percent ratio of viable treated cells vs. the number of viable untreated cells. Number of cells was determined from linear regression of a calibration curve.
(§5) Cell photosensitization. SKMEL 188, S91 and MCF7 cells were prepared as described above. […] The cells were incubated for 12 h at 37° C. and then irradiated at a 0.53 mW cm^2 fluence rate and in doses ranging from 0.1 to 0.64 J cm^2. We recall that photosensitizer uses only ca. ⅕ of the available fluence rate of the filtered halogen lamp. The MTT test was performed 24 h after irradiation. The values were obtained from three independent experiments and expressed as percent of cell survival with reference to control cells, which were manipulated in the same manner but without incubation with photosensitizer and without illumination. […]

S91 (mouse melanoma) = assay: as above; assay type: cell-based; details: [Luzitin-Cl-c] = 20 μM
Procedure: as §2, §3, §4, §5

With `O=S(=O)(O)c1ccc(Cl)c(-c2c3nc(c(-c4cc(S(=O)(=O)O)ccc4Cl)c4ccc([nH]4)c(-c4cc(S(=O)(=O)O)ccc4Cl)c4nc(c(-c5cc(S(=O)(=O)O)ccc5Cl)c5ccc2[nH]5)CC4)C=C3)c1` [Luzitin-Cl-c, 5,10,15,20-tetrakis(2-chloro-5-sulfonylphenyl)chlorin] the “ΦF (fluorescence quantum yield)” value [1] was 0.039, the εmax [2] was 7,000 M^−1 cm^−1 and the λmax [2] was 650 nm. The “LD50 (light dose to kill 50% of the cells)” value [3] was 0.26 J/cm^2, the “LD90 (light dose to kill 90% of the cells)” value [3] was 0.46 J/cm^2 and the “ΦΔ (singlet oxygen quantum yield)” value [4] was 0.69. For the same compound, the “LD50 (light dose to kill 50% of the cells)” value [5] was 0.3 J/cm^2, the “LD90 (light dose to kill 90% of the cells)” value [5] was 0.7 J/cm^2 and the “LD50 (light dose to kill 50% of the cells)” value (S91 (mouse melanoma)) was 0.13 J/cm^2. The “LD90 (light dose to kill 90% of the cells)” value (S91 (mouse melanoma)) was 0.26 J/cm^2.
